Experimental data as given in patent EP2243478A1, “PHARMACEUTICAL COMPOSITION COMBINING AN ANTIARTHRITIC AGENT AND AN INTERLEUKIN-1 INHIBITING AGENT, WHICH CAN BE USED TO CONTROL AND TREAT OSTEOARTHRITIS AND RELATED DISEASES” (World Trade Import-Export, WTIE A.G., priority 2007, dated 2009).

Key:
pain = conditions: dose from 2 to 4 gr/day; cited from earlier work
[1] = cited from earlier work
patients with hip OA = assay: comparative clinical study of Diacerein, Chondroitin and the combination Diacerein/Chondroitin, 6 month follow-up; format: in vivo
Procedure: A comparative clinical study in patients with hip OA was carried out with a 6 month term for follow-up. The study compared the efficacy of single Diacerein administration, single chondroitin and a combination of Diacerein/Chondroitin. The study included 120 patients which were divided in 3 treatment groups: • Groups 1: received Diacerein 50 mg administration twice a day. • Group 2: received Chondroitin 600 mg administration twice a day. • Group 3 : received Diacerein 50 mg /Chondroitin 600 mg administration twice a day.
Patients fulfilled with the inclusion criteria from the American Rheumatology Academy. Inclusion criteria were: • Symptomatic disease presence, defined as daily hip pain at least during the last two months. • A functional pain Lequesne index at least of 3 points. • Radiographic criteria were a joint space between 1 and 3 mm (without exceeding 3 mm) or less than 0.5 mm qf contralateral hip.
Joint hip space was measured through a prior pelvic radiography reading center, using a graded 0.1 mm magnification crystal. Start and end of treatment was radiographically assessed comparing the affected vs contralateral hip.
Laboratory analyses were carried out at the beginning of the study and on 6 months of treatment, assessing liver and kidney performance.

[2] = cited from earlier work; remark: listed apart in the source
[3] = in vivo; cited from earlier work

CC(=O)Nc1ccc(O)cc1 [Paracetamol]
controlling pain in patients (pain): 40 % of patients

O=C(O)c1cc(O)c2c(c1)C(=O)c1cccc(O)c1C2=O [Rein, rein]
bound to plasma proteins [1]: 99%

CC(=O)Oc1cccc2c1C(=O)c1c(OC(C)=O)cc(C(=O)O)cc1C2=O [Diacerein]
Patient percentage with radiographic progression (joint space loss at least of 0.5 mm) (patients with hip OA; Data from first laboratory analysis, P= 0.035): 51.6% | Patient percentage with radiographic progression (joint space loss at least of 0.5 mm) (patients with hip OA; Data upon 6 month treatment completion, P= 0.006): 46.7% | patients cancelled the treatment (because of inefficacy) (patients with hip OA; after two months of treatment (time printed for Group 1), forty patients per group, twice a day oral): 6 patients | joint space, Average ± SD (patients with hip OA; at 6 months of treatment, hip): 0.17 ± 0.24 mm/6 months | slow action start, not significant until ([2]; after treatment): 4 weeks | effect is maintained after having cancelled the treatment ([2]; in vivo): ≥ 2 months | clearance half-life in plasma [3]: 5 to 7 h
